Usually inhibition stands for the drop in the measured response relative to a control, in per cent. For orientation: IC50 means the concentration at which inhibition is half-maximal. The EC50 is the concentration needed to bring the measured effect to its halfway point.

The subject of assay [1] is Chikungunya Virus (CHIKV). The assay is described as follows: Inhibition of Chikungunya virus (CHIKV) production in infected HEK293T cell line (GFP-modified virus, fluorescence). As to conditions: HEK-293T, infected HEK293T cells; for inhibition at 1 µM: compounds at 1 μM, MOI 0.1, 22 h, values above 100 lowered to 100, read-out: % CHIKV Inhibition Mean (n = 2); for IC50: read-out: IC50 (CHIKV, second round of experiments). The format is cell-based, CHIKV strain of La Réunion outbreak (LR2006-OPY1). As for the experimental part: The ability of the compounds to inhibit viral replication was assessed with an experiment in which infected cells were treated by compounds of formula (I) at 1 μM. As a positive control for inhibition of Chikungunya, Ribavirin was used. Toxicity of the compounds was assessed in parallel.
Human embryonic kidney cells 293T (HEK293T, CRL-11268) were maintained in Dulbecco's modified Eagle's Medium (DMEM, 31966-021, Thermo Fisher Scientific) supplemented with 10% of fetal bovine serum (FBS), penicillin and streptomycin. After removal of the medium, cells were washed with Ca^2+ and Mg^2+-free salt solution to remove all traces of serum. After aspiration of wash solution, cells were dissociated with 0.25% Trypsin-EDTA solution and incubated 30 s at least in 37° C. incubator. Concentration of cell suspension was determined by an automatic cell counter (EVE, NanoEntek) and, if needed, adjusted to 0.33×10^6 cells/mL with DMEM medium supplemented with 10% FBS.
100 μL of the cell suspension were dispatched in a ViewPlate-96 Black (6005182, PerkinElmer) and in a transparent 96-well cell culture plate (655180, Greiner bio-one). After an incubation for 24 h at 37° C. under 5% of CO2, compounds were added at the proper concentration.
An intermediate dilution was prepared with DMSO (D8418, Sigma) at 2 mM in a 96-well V-bottom microplate from the stock solution:
Mix 1 μL of the 50 mM stock library in 25 μL of DMSO.
Mix 2 μL of the 25 mM stock library in 25 μL of DMSO.
An intermediate dilution was prepared with DMSO (D8418, Sigma) at 25 mM in a 96-well V-bottom microplate from the stock solution:
Mix 2 μL of the 50 mM stock library in 2 μL of DMSO.
Perform serial dilution in 2 μL of DMSO 13 times to reach 0.0015 mM. Proceed as follows in table III:
For both screen and determination of IC50, 1 μL of each solution was added in a 1 mL Masterblock 96 wells (Greiner bio-one, 780261) containing 1 mL of DMEM medium. As a positive control, 5 μL of a 80 mM Ribavirin solution (R9644, Sigma) is added to 1 mL of DMEM. On the other hand, DMSO is used as a negative control.
[…]. Vector Borne Zoonotic Dis. 2006; 6(4)). This modified virus was used to infect cells at MOI 0.1. […]. Medium was removed after 22 h at 37° C. under 5% of CO2 and cells were washed as described above. 60 μL of RIPA buffer (50 mM Tris-HCl pH8, 100 mM NaCl, 1 mM MgCl2, 1% Triton X-100) was added to cells and incubated for at least 20 min before reading fluorescence signal. Pierce 660 nm Protein Assay Reagent (22660, Thermo scientific) was used to normalize fluorescence signal by protein quantity.
CellTiter 96® AQueous One Solution Cell Proliferation Assay (MTS) (G3581, Promega) was used to check the toxicity of the compounds. We added 20 μL of MTS solution and read absorbance at 492 nm one hour later.
Results • A first round of experiments has been performed wherein the results are expressed as inhibition percentage, which is calculated as follows, through the following steps:
1. Fluorescence intensity (FI)/Absorbance 660 nm (A660)=A
This ratio allows considering the infection (GFP virus) to the protein amount.
2. A′=A—background noise of non-infected plate,
3. B=Fluorescence intensity (FI)/Absorbance 660 nm (A660) of infected but non treated plates,
4. C=A′/B, which is then converted as the percentage of infection after treatment, compared to non-treated sample, and subsequently as the […]. For instance, a value of 100 in Table IV here below means that, after treatment, the signal attributed to GFP fluorescence is abolished, which is correlated to the absence of infection.
This value corresponds to the inhibition's percentage.
The following Table IV encompasses said C′ value for some compounds, as calculated above with a mean of 2 experiments, and corresponding standard deviation.
Some values were originally above 100. In these cases, the value has been lowered to 100. This means that some molecules also have an impact on the viability of the cells. […]

A further assay has as its system DENV-2. The assay is described as follows: DENV-2 inhibition in A549 cells using Viral ToxGlo assay (cytopathic effect). The format is cell-based, DENV-2 strain 16681. The following applies: Dengue virus, DENV2, A549, 120 h, read-out: % DENV-2 Inhibition Mean (n = 3). The protocol:
Protocol for Screening Antiviral Compounds for DENV-2 Inhibition and Cytotoxicity Using Viral ToxGlo Assay
A549 cells were maintained in Dulbecco's Modified Eagle Medium (DMEM) supplemented with 10% fetal bovine serum, 100 U/ml penicillin and 100 μg/ml streptomycin. For the purposes of the screening assay they were grown to 90% confluency, trypsinized and recovered. The trypsin was neutralised with cell culture media and cells were centrifuged at 150×g for 5 minutes before discarding the supernatant and resuspending cell pellet in assay media (DMEM supplemented with 2% fetal bovine serum and 100 U/ml penicillin and 100 μg/ml streptomycin). The cells were seeded into 96-well white clear-bottomed cell culture plates at a density of 1.0×10^4 cells/well in 50 μl. For the media/background control column assay media only was added. Cell plates were placed in a humid chamber and incubated overnight at 37° C./5% CO2. After overnight incubation cells were checked for confluency and healthy appearance.
Test compounds were prepared at a final concentration of 10 μM in a maximum DMSO concentration of 1% (final assay concentration maximal 0.1% DMSO) and added to the cell plates in volumes of 10 μl. For cell control and virus control wells the test article solvent only was added. As a positive inhibition control, 7-Deaza-2′-C-methyladenosine was added at 100 μM in 3 wells. Virus (DENV-2 strain 16681) or assay media for cytotoxicity test wells and media/cell control wells was added immediately after test articles at an MOI of 0.5, 40 for 96 well plates respectively. Virus suspension was prepared by thawing DENV-2 frozen stocks and diluting to the required concentration of plaque forming units in assay media.
Cell plates were further incubated inside a humid chamber for 5 days p.i at 37° C./5% CO2. After the incubation period cells were observed under the microscope to check for characteristic cytopathic effect in virus control wells and healthy cells in the cell control wells. After plates were adjusted to room temperature 20 μl Viral ToxGlo (Promega) was added to each well of the 96-well cell plates. Plates were incubated at room temperature for 5 minutes before measuring the luminescence on a spectrophotometer (Envision, PerkinElmer).
DENV-2 inhibition was calculated as percentage of cytopathic effect inhibition relative to the virus control and cytotoxicity as percentage of cell survival relative to cell control wells.
For orientation: Cytopathic effects are the visible damage that an infection or toxin causes in cultured cells.

The subject of the next assay is RSV. Put plainly: RSV inhibition in HEp-2 cells using Viral ToxGlo assay (cytopathic effect). As to conditions: human respiratory syncytial virus, HEp-2, 72 h. It is filed as cell-based, RSV A2. As for the experimental part:
Protocol for Screening Antiviral Compounds for RSV Inhibition and Cytotoxicity Using Viral ToxGlo Assay
HEp-2 cells were maintained in Eagle's minimum essential medium (EMEM) with Earle's BSS adjusted to contain 2 mM L-glutamine, 10% fetal bovine serum, 100 U/ml penicillin and 100 μg/ml streptomycin. For the purposes of the screening assay they were grown to 90% confluency, trypsinized and recovered. The trypsin was neutralised with cell culture media and cells were centrifuged at 150×g for 5 minutes before discarding the supernatant and resuspending cell pellet in assay media (EMEM with Earle's BSS adjusted to contain 2 mM L-glutamine, 2% fetal bovine serum and 100 U/ml penicillin and 100 μg/ml streptomycin). The cells were seeded into white clear-bottomed cell culture plates at a density of 1.5×10^4 cells/well in 50 μl and 4×10^3 cells/well in 25 μl for 96 well plates and 384 well plates respectively. For the media/background control column assay media only was added. Cell plates were placed in a humid chamber and incubated overnight at 37° C./5% CO2. After overnight incubation cells were checked for confluency and healthy appearance.
Test articles were made up at 10× test concentration in a maximum DMSO concentration of 10% (final assay concentration maximal 1% DMSO) and added to the cell plates in volumes of 10 μl for 96 well plates and 5 μl for 384 well plates. For cell control and virus control wells the test article solvent only was added. Virus or assay media for cytotoxicity test wells and media/cell control wells was added immediately after test articles at an MOI of 0.5, 40 or 20 μl for 96 and 384 well plates respectively. Virus suspension was prepared by thawing RSV A2 frozen stocks and diluting to the required concentration of plaque forming units in assay media on ice.
Cell plates were further incubated inside a humid chamber for 72 h p.i at 37° C./5% CO2. After the incubation period cells were observed under the microscope to check for characteristic cytopathic effect in virus control wells and healthy cells in the cell control wells. After plates were adjusted to room temperature 20/40 μl Viral ToxGlo (Promega) was added to each well of the 384/96 well cell plates. Plates were incubated at room temperature, protected from light on a plate rocker for 20 minutes before measuring the luminescence on a spectrophotometer (Biotek Synergy HTX).
RSV inhibition was calculated as percentage of cytopathic effect inhibition relative to the virus control and cytotoxicity as percentage of cell survival relative to cell control wells. This allowed EC50 values to be calculated for each test article where a virus inhibition or cytotoxic dose response was identified.

For `CC(C)CCNC(=O)c1cccc(Nc2ccc(/C=C/c3ccccn3)cc2)c1` [Compound 1, (E)-N-isopentyl-3-((4-(2-(pyridin-2-yl)vinyl)phenyl)amino)benzamide], the inhibition at 1 µM in assay [1] came to 98%.
As for `CC(C)CCNC(=O)c1cccc(Nc2ccc(C(=O)Nc3ccccn3)cc2)c1` [Compound 14, N-isopentyl-3-((4-(pyridin-2-ylcarbamoyl)phenyl)amino)benzamide], in assay [1], the inhibition at 1 µM was 93% and the IC50 lay in the range of 200 to 500 nM.
Consider `O=C(NCCC1CCCC1)c1cccc(Nc2ccc(C(=O)Nc3ccccn3)cc2)c1` [Compound 15, N-(2-cyclopentylethyl)-3-((4-(pyridin-2-ylcarbamoyl)phenyl)amino)benzamide], for which, in assay [1], the inhibition at 1 µM stood at 98% and the IC50 lay in the range of 200 to 500 nM. The inhibition at 10 µM with DENV-2 stood at 107%.
The matching figures for `O=C(NCCC1CCCC1)c1cccc(Nc2ccc(NC(=O)c3ccccn3)cc2)c1` [Compound 35, N-(4-((3-((2-cyclopentylethyl)carbamoyl)phenyl)amino)phenyl)picolinamide]: 100%, 200 to 500 nM and 66%.
For the molecule `O=C(NCCC1CCC1)c1cccc(Nc2ccc(/C=C/c3ccccn3)cc2)c1` [Compound 9, (E)-N-(2-cyclobutylethyl)-3-((4-(2-(pyridin-2-yl)vinyl)phenyl)amino)benzamide], in assay [1], the inhibition at 1 µM was 98%.
Consider `Cc1cc(/C=C/c2ccccn2)ccc1Nc1cccc(C(=O)NCCC2CCCC2)c1` [Compound 12, (E)-N-(2-cyclopentylethyl)-3-((2-methyl-4-(2-(pyridin-2-yl)vinyl)phenyl)amino)benzamide], for which, in assay [1], the IC50 was 1 to 200 nM. Besides, the EC50 in the assay on RSV was 370 to 2500 nM. For the same molecule, the inhibition at 10 µM in the assay on DENV-2 worked out at 96%.
As to `O=C(NCCC1CCCC1)c1cccc(Nc2ccc(/C=C/c3ccccn3)cc2)c1` [Compound 6, (E)-N-(2-cyclopentylethyl)-3-((4-(2-(pyridin-2-yl)vinyl)phenyl)amino)benzamide], in assay [1], the inhibition at 1 µM came to 98% and the IC50 was in the range of 200 to 500 nM.
Regarding `O=C(NCCC1CCCCC1)c1cccc(Nc2ccc(C(=O)Nc3ccccn3)cc2)c1` [Compound 16, N-(2-cyclohexylethyl)-3-((4-(pyridin-2-ylcarbamoyl)phenyl)amino)benzamide], in assay [1], the inhibition at 1 µM came out at 100% and the IC50 fell in the range of 200 to 500 nM. For the same molecule, in the assay on RSV, the EC50 was found to be 1170 nM.
Take `CC(C)CCNC(=O)c1cccc(Nc2ccc(NC(=O)c3ccccn3)cc2)c1` [Compound 32, N-(4-((3-(isopentylcarbamoyl)phenyl)amino)phenyl)picolinamide]: in assay [1], the inhibition at 1 µM is 99% and the IC50 was 200 to 500 nM.
As to `O=C(NCCC1CCCCC1)c1cccc(Nc2ccc(/C=C/c3ccccn3)cc2)c1` [Compound 4, (E)-N-(2-cyclohexylethyl)-3-((4-(2-(pyridin-2-yl)vinyl)phenyl)amino)benzamide], the inhibition at 1 µM in assay [1] worked out at 99%.
For the molecule `CC(C)CCNC(=O)c1ccc(Nc2ccc(/C=C/c3ccccn3)cc2)cc1` [Compound 2, (E)-N-isopentyl-4-((4-(2-(pyridin-2-yl)vinyl)phenyl)amino)benzamide], the inhibition at 1 µM in assay [1] is 74%.
As for `Cc1cc(/C=C/c2ccccn2)ccc1Nc1cccc(C(=O)NCCC(C)C)c1` [Compound 13, (E)-N-isopentyl-3-((2-methyl-4-(2-(pyridin-2-yl)vinyl)phenyl)amino)benzamide], the IC50 in assay [1] was 1 to 200 nM. The EC50 in the assay with RSV was in the range of 370 to 2500 nM. Besides, the inhibition at 10 µM in the assay with DENV-2 turned out to be 86%.
Take `O=C(Nc1ccccc1)c1ccc(Nc2cccc(OCCCC3CCCCC3)c2)c(C2CC2)c1` [Compound 115, 4-{[3-(3-cyclohexylpropoxy)phenyl]amino}-3-cyclopropyl-N-phenylbenzamide]: the EC50 with RSV was 229 nM.

(Values after patent US11739073B2, “Aryl-n-aryl derivatives for treating a RNA virus infection” (ABIVAX, priority 2018, dated 2023).)
